Test results reported in ChEMBL document CHEMBL3603789, “N-Lipidated Peptide Dimers: Effective Antibacterial Agents against Gram-Negative Pathogens through Lipopolysaccharide Permeabilization” (J Med Chem, 2015).
In brackets after ≈: the same amount, converted by molar mass. Each block holds one compound with its values, some of them ahead of it. Activity calls are given as the source filed them. The calls are words filed in the database; no cut-off is given here. Bridge positions count the residues as written; N and C are the ends. Peptide text beside a SMILES is read from it. I, II: the chains in the order shown. * marks the point of attachment. Hexanoyl = CCCCCC(=O)*

Key:
Pseudomonas aeruginosa [1] = assay: Antibacterial activity against Pseudomonas aeruginosa ATCC 27853 after 24 hrs by broth microdilution method; type: functional; conditions: ATCC 27853, 24 h
Pseudomonas aeruginosa [2] = assay: Induction of cytoplasmic membrane disruption in Pseudomonas aeruginosa DM23155 assessed as membrane integrity at 1 to 2 times MIC after 1 hr by fluorescence assay; type: functional
Klebsiella pneumoniae [3] = assay: Antibacterial activity against Klebsiella pneumoniae DM4299 after 24 hrs by broth microdilution method; type: functional; conditions: DM4299, 24 h
[4] = Induction of calcein leakage from DOPE/DOPG artificial membrane at 1:32 ratio of compound to lipid by fluorescence assay; type: physicochemical
Pseudomonas aeruginosa [5] = assay: Antibacterial activity against Pseudomonas aeruginosa DU14476 after 24 hrs by broth microdilution method; type: functional; conditions: DU14476, 24 h
Pseudomonas aeruginosa [6] = assay: Antibacterial activity against Pseudomonas aeruginosa DM4150R after 24 hrs by broth microdilution method; type: functional
Lipopolysaccharide (LPS) [7] = assay: Induction of Escherichia coli 0111:B4 LPS neutralization using p-nitroaniline assessed as concentration required to neutralize 50% after 1 hr by limulus amebocyte lysate assay
Pseudomonas aeruginosa [8] = assay: Antibacterial activity against Pseudomonas aeruginosa DM23155 assessed as log reduction of viable count at 2 times MIC after 30 mins by time-kill assay relative to control; type: functional
Escherichia coli [9] = assay: Antibacterial activity against Escherichia coli ATCC 25922 after 24 hrs by broth microdilution method; type: functional; conditions: ATCC 25922, 24 h
Pseudomonas aeruginosa [10] = assay: Antibacterial activity against Pseudomonas aeruginosa DR5790 after 24 hrs by broth microdilution method; type: functional; conditions: DR5790, 24 h
Pseudomonas aeruginosa [11] = assay: Antibacterial activity against Pseudomonas aeruginosa DR4877 after 24 hrs by broth microdilution method; type: functional; conditions: DR4877, 24 h
Pseudomonas aeruginosa [12] = assay: Antibacterial activity against Pseudomonas aeruginosa DR18531 after 24 hrs by broth microdilution method; type: functional; conditions: DR18531, 24 h
Pseudomonas aeruginosa [13] = assay: Antibacterial activity against Pseudomonas aeruginosa DM23257 after 24 hrs by broth microdilution method; type: functional; conditions: DM23257, 24 h
Pseudomonas aeruginosa [14] = assay: Antibacterial activity against Pseudomonas aeruginosa ATCC 9027 after 24 hrs by broth microdilution method; type: functional; conditions: ATCC 9027, 24 h
Pseudomonas aeruginosa [15] = assay: Antibacterial activity against Pseudomonas aeruginosa DM23155 after 24 hrs by broth microdilution method; type: functional; conditions: DM23155, 24 h
[16] = Toxicity in New Zealand white rabbit erythrocytes assessed as hemolytic activity after 60 mins; type: cell-based, Oryctolagus cuniculus; conditions: erythrocyte, 1 h
Pseudomonas aeruginosa [17] = assay: Antibacterial activity against Pseudomonas aeruginosa DM23376 after 24 hrs by broth microdilution method; type: functional; conditions: DM23376, 24 h
Lipopolysaccharide (LPS) [18] = assay: Displacement of dansylcadaverine from Escherichia coli 0111:B4 LPS at 15 to 30 uM after 5 mins by high-throughput fluorescence displacement assay
Escherichia coli [19] = assay: Antibacterial activity against Escherichia coli ATCC 25922 after 24 hrs by checkerboard assay in presence of streptomycin; type: functional
Escherichia coli [20] = assay: Antibacterial activity against Escherichia coli ATCC 25922 after 24 hrs by checkerboard assay in presence of kanamycin; type: functional
Escherichia coli [21] = assay: Antibacterial activity against Escherichia coli DS17232 after 24 hrs by broth microdilution method; type: functional; conditions: DS17232, 24 h
Escherichia coli [22] = assay: Antibacterial activity against Escherichia coli DM17528 after 24 hrs by broth microdilution method; type: functional; conditions: DM17528, 24 h
Pseudomonas aeruginosa [23] = assay: Antibacterial activity against Pseudomonas aeruginosa DM23155 after 24 hrs by checkerboard assay in presence of erythromycin; type: functional
Klebsiella pneumoniae [24] = assay: Antibacterial activity against Klebsiella pneumoniae DU31158 after 24 hrs by broth microdilution method; type: functional; conditions: DU31158, 24 h
Klebsiella pneumoniae [25] = assay: Antibacterial activity against Klebsiella pneumoniae DS07955 after 24 hrs by broth microdilution method; type: functional; conditions: DS07955, 24 h
Escherichia coli [26] = assay: Antibacterial activity against Escherichia coli ATCC 25922 after 24 hrs by checkerboard assay in presence of gentamicin; type: functional
Pseudomonas aeruginosa [27] = assay: Antibacterial activity against Pseudomonas aeruginosa DM23155 after 24 hrs by checkerboard assay in presence of kanamycin; type: functional
Escherichia coli [28] = assay: Antibacterial activity against Escherichia coli ATCC 25922 after 24 hrs by checkerboard assay in presence of erythromycin; type: functional
Klebsiella pneumoniae [29] = assay: Antibacterial activity against Klebsiella pneumoniae DS16260 after 24 hrs by broth microdilution method; type: functional; conditions: DS16260, 24 h
Escherichia coli [30] = assay: Antibacterial activity against Escherichia coli ATCC 25922 after 24 hrs by checkerboard assay in presence of nalidixic acid; type: functional
Klebsiella pneumoniae [31] = assay: Antibacterial activity against Klebsiella pneumoniae DB55301 after 24 hrs by broth microdilution method; type: functional; conditions: DB55301, 24 h
Pseudomonas aeruginosa [32] = assay: Antibacterial activity against Pseudomonas aeruginosa DM23155 after 24 hrs by checkerboard assay in presence of nalidixic acid; type: functional
Pseudomonas aeruginosa [33] = assay: Antibacterial activity against Pseudomonas aeruginosa DM23155 after 24 hrs by checkerboard assay in presence of gentamicin; type: functional
Pseudomonas aeruginosa [34] = assay: Antibacterial activity against Pseudomonas aeruginosa DM23155 after 24 hrs by checkerboard assay in presence of streptomycin; type: functional

MIC (Pseudomonas aeruginosa [1]): 6 µM (≈ 13.7 µg/mL)
MIC (Klebsiella pneumoniae [3]): 6 µM (≈ 13.7 µg/mL)
Activity [4]: Active
MIC (Pseudomonas aeruginosa [5]): 6 µM (≈ 13.7 µg/mL)
MIC (Pseudomonas aeruginosa [6]): 3 µM (≈ 6.87 µg/mL)
EC50 (Lipopolysaccharide (LPS) [7]): > 1000 µM
MIC (Escherichia coli [9]): 3 µM (≈ 6.87 µg/mL)
MIC (Pseudomonas aeruginosa [10]): 10 µM (≈ 22.9 µg/mL)
MIC (Pseudomonas aeruginosa [11]): 6 µM (≈ 13.7 µg/mL)
MIC (Pseudomonas aeruginosa [12]): 3 µM (≈ 6.87 µg/mL)
MIC (Pseudomonas aeruginosa [13]): 3 µM (≈ 6.87 µg/mL)
MIC (Pseudomonas aeruginosa [14]): 6 µM (≈ 13.7 µg/mL)
MIC (Pseudomonas aeruginosa [15]): 6 µM (≈ 13.7 µg/mL)
MIC (Pseudomonas aeruginosa [17]): 6 µM (≈ 13.7 µg/mL)
Activity (Lipopolysaccharide (LPS) [18]): 82.4%
Structure (SMILES): CC(C)[C@H](NC(=O)[C@H](CCCCN)NC(=O)[C@H](CCCNC(=N)N)NC(=O)CNC(=O)[C@@H](N)CCCNC(=N)N)C(=O)N[C@H](C(=O)N[C@@H](CCCNC(=N)N)C(=O)N[C@@H](CCCNC(=N)N)C(=O)NCCCC[C@H](NC(=O)[C@H](CCCNC(=N)N)NC(=O)[C@H](CCCNC(=N)N)NC(=O)[C@@H](NC(=O)[C@@H](NC(=O)[C@H](CCCCN)NC(=O)[C@H](CCCNC(=N)N)NC(=O)CNC(=O)[C@@H](N)CCCNC(=N)N)C(C)C)C(C)C)C(=O)N[C@@H](CCCCN)C(=O)O)C(C)C (I: H-RGRKVVRRKK-OH / II: H-RGRKVVRR; amide I:9-II:C)
Activity (Pseudomonas aeruginosa [2]): >80%
Activity (Pseudomonas aeruginosa [8]): inactive
HC10 [16]: > 10000 µg/mL

MIC (Klebsiella pneumoniae [3]): 6 µM (≈ 14.9 µg/mL)
Activity [4]: Active
MIC (Escherichia coli [21]): 10 µM (≈ 24.9 µg/mL)
MIC (Escherichia coli [22]): 10 µM (≈ 24.9 µg/mL)
MIC (Klebsiella pneumoniae [24]): 10 µM (≈ 24.9 µg/mL)
MIC (Klebsiella pneumoniae [25]): 10 µM (≈ 24.9 µg/mL)
EC50 (Lipopolysaccharide (LPS) [7]): 187 µM
MIC (Escherichia coli [9]): 3 µM (≈ 7.46 µg/mL)
MIC (Klebsiella pneumoniae [29]): 3 µM (≈ 7.46 µg/mL)
MIC (Klebsiella pneumoniae [31]): 10 µM (≈ 24.9 µg/mL)
MIC (Pseudomonas aeruginosa [15]): 6 µM (≈ 14.9 µg/mL)
Activity (Lipopolysaccharide (LPS) [18]): 100%
Structure (SMILES): CCCCCC(=O)N[C@@H](CCCNC(=N)N)C(=O)NCC(=O)N[C@@H](CCCNC(=N)N)C(=O)N[C@@H](CCCCN)C(=O)N[C@H](C(=O)N[C@H](C(=O)N[C@@H](CCCNC(=N)N)C(=O)N[C@@H](CCCNC(=N)N)C(=O)NCCCC[C@H](NC(=O)[C@H](CCCNC(=N)N)NC(=O)[C@H](CCCNC(=N)N)NC(=O)[C@@H](NC(=O)[C@@H](NC(=O)[C@H](CCCCN)NC(=O)[C@H](CCCNC(=N)N)NC(=O)CNC(=O)[C@H](CCCNC(=N)N)NC(=O)CCCCC)C(C)C)C(C)C)C(=O)N[C@@H](CCCCN)C(=O)O)C(C)C)C(C)C (I: Hexanoyl-RGRKVVRRKK-OH / II: Hexanoyl-RGRKVVRR; amide I:9-II:C)
Activity (Pseudomonas aeruginosa [2]): >80%
fractional inhibitory concentration index (FICI) (Escherichia coli [19]): 0.38
fractional inhibitory concentration index (FICI) (Escherichia coli [20]): 0.5
fractional inhibitory concentration index (FICI) (Pseudomonas aeruginosa [23]): 0.38
fractional inhibitory concentration index (FICI) (Escherichia coli [26]): 0.38
fractional inhibitory concentration index (FICI) (Pseudomonas aeruginosa [27]): 0.31
fractional inhibitory concentration index (FICI) (Escherichia coli [28]): 0.38
fractional inhibitory concentration index (FICI) (Escherichia coli [30]): 0.5
fractional inhibitory concentration index (FICI) (Pseudomonas aeruginosa [32]): 0.38
HC10 [16]: > 10000 µg/mL
fractional inhibitory concentration index (FICI) (Pseudomonas aeruginosa [33]): 0.25
fractional inhibitory concentration index (FICI) (Pseudomonas aeruginosa [34]): 0.38
